In test [1] the target is T1, purified LasB protein from P. aeruginosa (Pseudomonas aeruginosa, UniProt P14756).
T1 construct: purchased Merck or Charles River Laboratories
In words: Fluorometric assay to determine Ki (purified LasB, Abz-Ala-Gly-Leu-Ala-p-Nitro-Benzyl-Amide substrate). The format is biochemical. The protocol:
(§1) Experiments were therefore conducted (1) to measure the potency of inhibition of compounds of the invention against purified Pseudomonas aeruginosa LasB enzyme and also experiments were conducted (2) to measure the ability of compounds of the invention to inhibit LasB-catalysed elastin degradation. The first assay uses a commercial fluorescent synthetic peptide and purified LasB enzyme. The LasB hydrolysis kinetics are measured allowing the determination of the IC50 and Ki of the inhibitors; the second is a more physiological assay using dialysed Pseudomonas aeruginosa supernatant as source of enzyme, plus its natural substrate Elastin. It is an “end point assay” that determines the percentage of LasB inhibition by each compound for one particular time point and inhibitor concentration. Technical details are described below:
This assay uses commercially available substrate (Abz-Ala-Gly-Leu-Ala-p-Nitro-Benzyl-Amide (Ex: 340 nm, Em: 415 nm) from Peptide International) and purified LasB protein from P. aeruginosa (provided by Merck or Charles River Laboratories). It is performed to determine LasB elastase activity and assess compound inhibition in 96-well plate format. All compounds of Formula (I) were assessed using the method described below.
Method: 10 to 140 ng/ml purified LasB is incubated with 250 μM Abz-Ala-Gly-Leu-Ala-p-Nitro-Benzyl-Amide in 50 mM Tris-HCl pH 7.4, 2.5 mM CaCl2), 0.01% of Triton X100 at 37° C. LasB activity (corresponding to fluorescence emission induced by substrate hydrolysis) is measured over 30 min at 37° C. with a fluorescence plate reader such as the Perkin Elmer Envision or similar. Different range of inhibitor concentrations are routinely assessed depending of inhibitor potency from 0.0016 to 200 μM (2-fold dilutions series) in order to determine IC50.
The equation used to calculate the Ki from IC50 is: Ki=IC50/(1+([S]/Km)) where [S]=250 μM and Km=214 μM.

Test [2] has as its target T2, LasB elastase activity of dialysed supernatant from P. aeruginosa PAO1 (Pseudomonas aeruginosa, UniProt P14756).
T2 construct: Culture supernatants are recovered by centrifugation and filtrated through a 0.22 μM filter; endogenous in cells; host or cells: P. aeruginosa strain PAO1, culture supernatant, filtered and dialysed
In words: Elastin Congo-Red assay to determine % inhibition (dialysed PAO1 supernatant). The class given is biochemical. The note with it: read-out: Elastin hydrolysis % inhibition @ 25 μM inhibitor concentration. The protocol: as §1
The Elastin assay uses as source of enzyme dialysed supernatant from P. aeruginosa PAO1 and the Elastin Congo-Red as substrate. The natural LasB substrate, elastin, is complexed with the congo-red dye (Elastin Congo-Red, ECR). The elastolysis activity from the culture supernatant will degrade elastin and release the congo-red dye into the supernatant. This red dye release can be measured with a spectrophotometer.
Method: To determine LasB elastase activity and assess compound inhibition, an overnight culture of P. aeruginosa strain PAO1 is diluted in LB medium. After reaching an OD600nm of 0.6, this culture is diluted and incubated for additional 18-24 hours in a shaking incubator. Culture supernatants are recovered by centrifugation and filtrated through a […] filter. These supernatants are dialysed (filtration molecules <20 kDa) into a 50 mM Tris-HCl pH 7.4, 2.5 mM CaCl2 solution at 4° C. under agitation for 24 hours. Supernatant dialysed is then mixed volume/volume with the ECR suspension (20 mg/mL of ECR in 100 mM Tris-HCl pH 7.4 buffer supplemented with 1 mM CaCl2)) supplemented with Triton X100 (final concentration of 0.01%) in presence of DMSO (positive control) and/or different concentrations of compound (routinely 50 to 1.56 μM). As a negative control, the dialysed supernatant is replaced by Tris-HCl solution (50 mM Tris-HCl pH 7.4, 2.5 mM CaCl2). The mixed reaction is then incubated overnight in a 37° C. shaking incubator. The reaction supernatant is recovered by centrifugation and the release of congo-red is measured by its absorbance at 495 nm (OD495nm).
Percentage inhibition is determined using the following equation:
((OD495 nm value of positive control−OD495nm value of negative control)−(OD495nm value of treated supernatant−OD495nm value of negative control))/(OD495nm value of positive control−OD495nm value of negative control)×100.

The source of these data is patent US20240016941A1, “COMBINATION THERAPY” (priority 2020, published 2024).

One may read the Ki as the dissociation constant of the complex between target and ligand, obtained from inhibition or displacement. A low value points to higher affinity.

T1 sequence (P14756 198-498): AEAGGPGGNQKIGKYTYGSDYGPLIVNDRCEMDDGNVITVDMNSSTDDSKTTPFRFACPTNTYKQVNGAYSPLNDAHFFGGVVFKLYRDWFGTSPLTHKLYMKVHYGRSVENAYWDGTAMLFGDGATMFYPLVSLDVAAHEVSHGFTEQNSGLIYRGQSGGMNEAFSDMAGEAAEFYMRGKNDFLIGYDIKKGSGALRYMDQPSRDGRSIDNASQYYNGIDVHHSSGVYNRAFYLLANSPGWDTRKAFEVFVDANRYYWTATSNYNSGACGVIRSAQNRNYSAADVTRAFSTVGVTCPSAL
T2 sequence (P14756 198-498): as above

`NC(=O)c1cccc2sc(CNC(=O)C3(CC(=O)O)Cc4ccccc4C3)nc12` [Example 1, 2-[2-[(4-carbamoyl-1,3-benzothiazol-2-yl)methylcarbamoyl]indan-2-yl]acetic acid] showed a Ki in test [1] of 200 to 10000 nM. Besides, the inhibition at 25 µM in test [2] was in the range of 10 to 60%.
`O=C(O)CC1(C(=O)NCc2nc3c(C(=O)N4CCCC4)cccc3s2)Cc2ccccc2C1` [Example 2, 2-[2-[[4-(pyrrolidine-1-carbonyl)-1,3-benzothiazol-2-yl]methylcarbamoyl]indan-2-yl]acetic acid] showed a Ki in test [1] of 200 to 10000 nM.
As to `O=C(O)CC1(C(=O)NCc2nc3c(S(=O)(=O)N4CCCC4)cccc3s2)Cc2ccccc2C1` [Example 3, 2-[2-[(4-pyrrolidin-1-ylsulfonyl-1,3-benzothiazol-2-yl)methylcarbamoyl]indan-2-yl]acetic acid], the Ki in test [1] was 50 to 200 nM. The inhibition at 25 µM in test [2] was in the range of 60 to 80%.
For `NS(=O)(=O)c1cccc2sc(CNC(=O)C3(CC(=O)O)Cc4ccccc4C3)nc12` [Example 4, 2-[2-[(4-sulfamoyl-1,3-benzothiazol-2-yl)methylcarbamoyl]indan-2-yl]acetic acid], in test [1], the Ki lay in the range of 200 to 10000 nM.
Same read-out and setting: for `O=C(O)CC1(C(=O)NCc2nc3c(S(=O)(=O)N4CCNCC4)cccc3s2)Cc2ccccc2C1` [Example 5, 2-[2-[(4-piperazin-1-ylsulfonyl-1,3-benzothiazol-2-yl)methylcarbamoyl]indan-2-yl]acetic acid] the value was 200 to 10000 nM.
With `NC1CCN(S(=O)(=O)c2cccc3sc(CNC(=O)C4(CC(=O)O)Cc5ccccc5C4)nc23)C1` (centres unmarked) [Example 6, 2-[2-[[4-(3-aminopyrrolidin-1-yl)sulfonyl-1,3-benzothiazol-2-yl]methylcarbamoyl]indan-2-yl]acetic acid], the Ki in test [1] is 50 to 200 nM. The inhibition at 25 µM in test [2] fell in the range of 60 to 80%.
The molecule `CS(=O)(=O)c1cccc2sc(CNC(=O)C3(CC(=O)O)Cc4ccccc4C3)nc12` [Example 7, 2-[2-[(4-methylsulfonyl-1,3-benzothiazol-2-yl)methylcarbamoyl]indan-2-yl]acetic acid] yielded a Ki in test [1] of 200 to 10000 nM.
Take `COc1cc2sc(CNC(=O)C3(CC(=O)O)Cc4ccccc4C3)nc2cc1OCC(=O)N1CCN(C)CC1` [Example 8, 2-[2-[[6-methoxy-5-[2-(4-methylpiperazin-1-yl)-2-oxo-ethoxy]-1,3-benzothiazol-2-yl]methylcarbamoyl]indan-2-yl]acetic acid]: the Ki in test [1] fell in the range of 50 to 200 nM. Also, the inhibition at 25 µM in test [2] fell in the range of 60 to 80%.
Take `COc1cc2sc(CNC(=O)C3(CC(=O)O)Cc4cc(F)c(F)cc4C3)nc2cc1OCCN1CCOCC1` [Example 10, 2-[5,6-difluoro-2-[[6-methoxy-5-(2-morpholinoethoxy)-1,3-benzothiazol-2-yl]methylcarbamoyl]indan-2-yl]acetic acid]: the Ki in test [1] was < 50 nM. For the same molecule, in test [2], the inhibition at 25 µM was > 80%.
Taken in the same sequence, the figures for `COc1cc2sc(CNC(=O)C3(CC(=O)O)Cc4cc(F)c(F)cc4C3)nc2cc1OCC(=O)N1CCN(C)CC1` [Example 12, 2-[5,6-difluoro-2-[[6-methoxy-5-[2-(4-methylpiperazin-1-yl)-2-oxo-ethoxy]-1,3-benzothiazol-2-yl]methylcarbamoyl]indan-2-yl]acetic acid] were 50 to 200 nM and 60 to 80%.
Taken in the same sequence, the figures for `COc1cc2sc(CNC(=O)C3(CC(=O)[O-])Cc4cc(F)c(F)cc4C3)nc2cc1OCC[N+]1(C)CCOCC1` [Example 13, 2-[5,6-difluoro-2-[[6-methoxy-5-[2-(4-methylmorpholin-4-ium-4-yl)ethoxy]-1,3-benzothiazol-2-yl]methylcarbamoyl]indan-2-yl]acetate] were 50 to 200 nM and 60 to 80%.
In the case of `CN(C)C1CN(C(=O)c2ccc3nc(CNC(=O)C4(CC(=O)O)Cc5ccccc5C4)sc3c2)C1` [Example 26, 2-[2-[[6-[3-(dimethylamino)azetidine-1-carbonyl]-1,3-benzothiazol-2-yl]methylcarbamoyl]indan-2-yl]acetic acid], the Ki in test [1] is 200 to 10000 nM.
The same measure, in the same setting: for `CN(C)CCNC(=O)c1ccc2sc(CNC(=O)C3(CC(=O)O)Cc4ccccc4C3)nc2c1` [Example 28, 2-[2-[[5-[2-(dimethylamino)ethylcarbamoyl]-1,3-benzothiazol-2-yl]methylcarbamoyl]indan-2-yl]acetic acid] the value was 200 to 10000 nM.
Same read-out and setting: in the case of `CN1CCN(C(=O)c2ccc3nc(CNC(=O)C4(CC(=O)O)Cc5ccccc5C4)sc3c2)CC1` [Example 29, 2-[2-[[6-(4-methylpiperazine-1-carbonyl)-1,3-benzothiazol-2-yl]methylcarbamoyl]indan-2-yl]acetic acid] it was 200 to 10000 nM.
The same measure, in the same setting: in the case of `CN(C)CCNC(=O)c1ccc2nc(CNC(=O)C3(CC(=O)O)Cc4ccccc4C3)sc2c1` [Example 30, 2-[2-[[6-[2-(dimethylamino)ethylcarbamoyl]-1,3-benzothiazol-2-yl]methylcarbamoyl]indan-2-yl]acetic acid] it was 200 to 10000 nM; in that of `CN(C)CCCN1CCN(C(=O)c2ccc3sc(CNC(=O)C4(CC(=O)O)Cc5ccccc5C4)nc3c2)CC1` [Example 31, 2-[2-[[5-[4-[3-(dimethylamino)propyl]piperazine-1-carbonyl]-1,3-benzothiazol-2-yl]methylcarbamoyl]indan-2-yl]acetic acid], 200 to 10000 nM.
Molecule `COc1cc2sc(CNC(=O)C3(CC(=O)[O-])Cc4ccccc4C3)nc2cc1C(=O)N1CCC([N+](C)(C)C)CC1` [Example 39, 2-[2-[[6-methoxy-5-[4-(trimethylammonio)piperidine-1-carbonyl]-1,3-benzothiazol-2-yl]methylcarbamoyl]indan-2-yl]acetate] yielded a Ki in test [1] of 200 to 10000 nM.
Take `O=C(O)CC1(C(=O)NCc2nc3ccc(OCCCO)cc3s2)Cc2ccccc2C1` [Example 50, 2-[2-[[6-(3-hydroxypropoxy)-1,3-benzothiazol-2-yl]methylcarbamoyl]indan-2-yl]acetic acid]: the Ki in test [1] was in the range of 50 to 100 nM.
Still for that read-out and setting: in the case of `CCCOc1ccc2nc(CNC(=O)C3(CC(=O)O)Cc4ccccc4C3)sc2c1` [Example 51, 2-[2-[(6-propoxy-1,3-benzothiazol-2-yl)methylcarbamoyl]indan-2-yl]acetic acid] it was 50 to 100 nM; in that of `COc1cc2sc(CNC(=O)C3(CC(=O)O)Cc4ccccc4C3)nc2cc1OCCCN(C)C` [Example 52, 2-[2-[[5-[3-(dimethylamino)propoxy]-6-methoxy-1,3-benzothiazol-2-yl]methylcarbamoyl]indan-2-yl]acetic acid], 50 to 100 nM; in that of `COc1cc2sc(CNC(=O)C3(CC(=O)[O-])Cc4ccccc4C3)nc2cc1OCCOCC[N+](C)(C)C` [Example 54, 2-[2-[[6-methoxy-5-[2-[2-(trimethylammonio)ethoxy]ethoxy]-1,3-benzothiazol-2-yl]methylcarbamoyl]indan-2-yl]acetate], 50 to 100 nM.
In turn, `COc1cc2sc(CNC(=O)C3(CC(=O)[O-])Cc4cc(F)c(F)cc4C3)nc2cc1OCC[N+](C)(C)C` [Example 56, 2-[5,6-difluoro-2-[[6-methoxy-5-[2-(trimethylammonio)ethoxy]-1,3-benzothiazol-2-yl]methylcarbamoyl]indan-2-yl]acetate] displayed an inhibitory constant (Ki) in test [1] of 50 to 100 nM.
